The test system of data set [1] is Hela cells. The experiment in a line: Transfection of FAM-labeled polyA/G, fluorescence intensity by flow cytometry. The class given is cell-based. The note with it: liposomes mixed with FAM-polyA at base ratio 5/1, 100 nM FAM-polyA, 4 hours, Hela cells (Fig. 7). The source says:
Taking DNTA and DNCA as examples, FAM-labeled polyA/G was used as a template to study the nucleic acid transfection abilities of thymine base acetamide glycerin ethers. The specific coating and transfection process is as follows: DNTA or DNCA liposomes were formulated as mixed solutions with FAM-polyA or FAM-polyG at a base ratios of 5/1. […] The DNA-free and DNA-only wells were used as two negative controls, and the transfection reagent Lipofectamine 2000-DNA complex (the method of addition of transfection reagent and DNA group according to the protocol) was added as a positive control; • (3) Washing three times with 500 µL PBS; • (4) After 4 hours, the liquids in the culture wells were aspirated, after adding 250 µL of 5% trypsin each, they were placed in 1.5 mL EP tubes, the cells were fixed with 4% paraformaldehyde for 15 min; • (5) Centrifuging, discarding the supernatant, adding 400 µL PBS in each tube; • (6) Fluorescence intensity was measured by using flow cytometry;
On the technique in general: A flow cytometer gives signals particle by particle.

Data set [2] relates to MCF-7 cells. The experiment in a line: Antisense nucleic acid (Cenersen) uptake. Conditions: liposomes, compared with blank group and DOCA/DOTA liposome groups (Fig. 8). The class given is cell-based. Here is the method: The cells used in the transfection experiments were Hela cells. • (1) Plating: 300,000 cells were added to the six-well plate, and the volume per well was 1.8 mL; • (2) After 18-24 h, the samples were diluted in an appropriate amount of opti-MEM, blowing and suction with a pipette to mix well, 20 µL of the mixed […] The DNA-free and DNA-only wells were used as two negative controls, and the transfection reagent Lipofectamine 2000-DNA complex (the method of addition of transfection reagent and DNA group according to the protocol) was added as a positive control; • (3) Washing three times with 500 µL PBS; • (4) After 4 hours, the liquids in the culture wells were aspirated, after adding 250 µL of 5% trypsin each, they were placed in 1.5 mL EP tubes, the cells were fixed with 4% paraformaldehyde for 15 min; • (5) Centrifuging, discarding the supernatant, adding 400 µL PBS in each tube; • (6) Fluorescence intensity was measured by using flow cytometry;
The procedure was the same as the transfection experiments of DNCA- and DNTA-packed PolyG/PolyA (using DOCA and DOTA as controls), the cell line was selected from MCF-7 cell line.

Data set [3] can be described thus: Cytotoxicity using CCK-8 kit. In kind it is cell-based. Conditions: for viability at 72 h, 60 µM: 72 hours after addition, concentration of 60 µM, read-out: cell survival rate; for cytotoxicity: CCK-8 kit (Fig. 6). Here is the method:
When base acetamide glycerin ether molecules should is to be used as novel biomaterials in the field of gene therapy, they must have good biocompatibility. Two base acetamide glycerin ether compounds (DOCA and DOTA) were studied for cytotoxicity using CCK-8 kit. […] After 72 hours of addition of the base acetamide glycerin ether compound at a concentration of 60 µM, the cell survival rate was close to 100%, indicating good biocompatibility (Fig. 6).
On the technique in general: Tetrazolium dyes change colour on reduction, which living cells bring about.

A short description of data set [4]: Particle size and morphology of liposomes by electron microscopy. In kind it is physicochemical. Conditions: liposome/nanoparticles self-assembled in water, electron microscopy (Fig. 5). The protocol: The base-acetamide glycerin ether molecule has an amphiphilic structure and can be prepared into a supramolecular structure such as a liposome. Taking DNTA as an example, the preparation method of liposome is as follows: DNTA (1.18 mg, 1.56 µmol) is dissolved in methanol (1 mL), vortexed to fully dissolve, after centrifugation, DNTA methanol solution (12.8 µL) is measured out and adding to a 200 µL centrifuge tube, added with PBS (100 µL), vortexed (10 s) to mix well. The solution was placed in a PCR program for annealing. Procedure: Heating at 95°C for 10 minutes, cool down 5°C every 5 minutes until 15°C, then store at 4°C. After annealing was completed, the centrifuge tube was incubated at 40°C for 30 min for the complete evaporation of methanol to obtain the liposome solution.
Under transmission electron microscope (TEM), it can be seen that the neutral base lipid carrier molecules DNCA and DNTA can form stable and uniform nanoparticles in aqueous solution. The size of the DNTA molecules assembled in water is around 150 nm. The size of the liposome formed by self-assembly of DNCA carrier molecules in water is around 180 nm (Fig. 5).

As to `CCCCCCCC/C=C\CCCCCCCCOCC(CNC(=O)Cn1ccc(N)nc1=O)OCCCCCCCC/C=C\CCCCCCCC` (stereo not shown) [DNCA, 1,2,-bis(oleyl)-glycero-3-amine-(cytosin-1-yl)-acetyl ester], in data set [1], the “transfection of FAM-polyA into cells” value is reported as “can successfully transport FAM-polyA into cells”. Besides, the “uptake of antisense nucleic acid” value in data set [2] is given as “could significantly increase the uptake ability of MCF-7 cells”. In addition, in data set [3], the viability at 72 h, 60 µM is around 100% and the cytotoxicity entry is reported as “no obvious cytotoxicity”. Further, the size entry in data set [4] is on record as “around 180 nm”.
Taken in the same sequence, the figures for `CCCCCCCC/C=C\CCCCCCCCOCC(CNC(=O)Cn1cc(C)c(=O)[nH]c1=O)OCCCCCCCC/C=C\CCCCCCCC` (stereo not shown) [DNTA, 1,2,-bis(oleyl)-glycero-3-amine-(thymidine-1-yl)-acetyl ester] were “can successfully transport FAM-polyA into cells”, “could significantly increase the uptake ability of MCF-7 cells”, around 100%, “no obvious cytotoxicity” and “around 150 nm”.

(Values after patent EP3539964A1, “BASE ACETAMIDE GLYCERIN ETHER MOLECULE, CHEMICAL SYNTHESIS METHOD THEREFOR, AND APPLICATIONS THEREOF IN FIELD OF GENE THERAPY” (Peking University, priority 2016, dated 2018).)
